35 compounds from patent publication US10034886B2, “GLP-1 receptor modulators” (Celgene International II SÀRL, priority 2014, dated 2018) can be followed below.

Where only a bound is given, the exact number is not on record here.

A word on the EC50: it is the midpoint of the concentration-response curve.

The target in this assay is T1, GLP-1R (Homo sapiens, UniProt P43220).
T1 construct: host or cells: GLP-1R CRE-bla CHO-K1 cells
T1 sequence (P43220 24-463): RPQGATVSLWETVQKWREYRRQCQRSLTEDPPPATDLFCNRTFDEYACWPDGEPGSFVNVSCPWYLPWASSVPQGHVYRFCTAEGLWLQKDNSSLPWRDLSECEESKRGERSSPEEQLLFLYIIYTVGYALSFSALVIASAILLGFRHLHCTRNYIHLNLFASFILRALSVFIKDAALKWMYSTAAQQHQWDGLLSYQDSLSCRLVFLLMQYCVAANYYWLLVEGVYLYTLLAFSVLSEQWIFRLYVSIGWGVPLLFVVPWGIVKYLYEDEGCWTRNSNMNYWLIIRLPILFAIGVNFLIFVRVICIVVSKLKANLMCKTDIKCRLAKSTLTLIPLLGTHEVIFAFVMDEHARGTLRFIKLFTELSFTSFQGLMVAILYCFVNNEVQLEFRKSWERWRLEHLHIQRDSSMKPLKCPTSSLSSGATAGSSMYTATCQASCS
T1 sequence (P01275 100-127 partner limits assumed): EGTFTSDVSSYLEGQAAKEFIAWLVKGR
As to the kind of experiment: EC20 GLP-1(9-36) PAM cAMP assay: dose response of compound in the presence of fixed concentration of GLP-1(9-36). Format: cell-based. The settings on record: GLP-1R CRE-bla CHO-K1 cells, compound dose response with fixed concentration of GLP-1(9-36), read-out: EC20 GLP-1(9-36) PAM EC50. A digest of the protocol:
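Positive allosteric modulation read as cAMP accumulation: compound titrations (12 points) combined with an EC20 level of GLP-1(9-36) on CHO-K1 GLP-1R CRE-bla cells, IBMX present, 30 min, 37 °C, pH 7.4 buffer. Luminescence converted to cAMP via standards; non-linear fit gave EC50 and Emax.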
On the technique in general: Changes in cAMP serve as a functional read-out for many G protein-coupled receptors.
On to `CCOc1ccc(-c2ccc(-c3cnc(-c4ccc(C[C@H](NC(=O)c5ccc(C(C)(C)C)s5)C(=O)N[C@H](C)C(=O)O)cc4)nc3)cc2)cc1` [Compound 1287], for which the concentration giving a half-maximal response (EC50) lay within 0.8 to 2.5 µM.
Under `CCCOc1ccc(-c2ccc(-c3cnc(-c4ccc(C[C@H](NC(=O)c5ccc(C(C)(C)C)s5)C(=O)N[C@H](C)C(=O)O)cc4)nc3)cc2)cc1` [Compound 1288] stands 0.8 to 2.5 µM; under `C[C@@H](NC(=O)[C@H](Cc1ccc(-c2ncc(-c3ccc(-c4ccccc4)c(F)c3)cn2)cc1)NC(=O)c1ccc(C(C)(C)C)s1)C(=O)O` [Compound 1289], less than 0.8 µM; under `C[C@@H](NC(=O)[C@H](Cc1ccc(-c2ncc(-c3ccc4c(c3)C(=O)c3ccccc3-4)cn2)cc1)NC(=O)c1ccc(C(C)(C)C)s1)C(=O)O` [Compound 1290], 2.5 to 5 µM.
Under `C[C@@H](NC(=O)[C@H](Cc1ccc(-c2ncc(-c3ccc(-c4ccc(C#N)cc4)cc3)cn2)cc1)NC(=O)c1ccc(C(C)(C)C)s1)C(=O)O` [Compound 1291] stands 0.8 to 2.5 µM; under `CC(=O)c1ccc(-c2ccc(-c3cnc(-c4ccc(C[C@H](NC(=O)c5ccc(C(C)(C)C)s5)C(=O)N[C@H](C)C(=O)O)cc4)nc3)cc2)cc1` [Compound 1292], less than 0.8 µM.
For the compound `C[C@@H](NC(=O)[C@H](Cc1ccc(-c2ncc(-c3ccc(-c4ccc(Br)cc4)cc3)cn2)cc1)NC(=O)c1ccc(C(C)(C)C)s1)C(=O)O` [Compound 1293], the EC50 is less than 0.8 µM.
Under `CC(C)CCOc1ccc(-c2ccc(-c3cnc(-c4ccc(C[C@H](NC(=O)c5ccc(C(C)(C)C)s5)C(=O)N[C@H](C)C(=O)O)cc4)nc3)cc2)cc1` [Compound 1294] stands 0.8 to 2.5 µM; under `CC(C)Oc1ccc(-c2ccc(-c3cnc(-c4ccc(C[C@H](NC(=O)c5ccc(C(C)(C)C)s5)C(=O)N[C@H](C)C(=O)O)cc4)nc3)cc2)cc1` [Compound 1295], 0.8 to 2.5 µM.
Under `CCCC(C)Oc1ccc(-c2ccc(-c3cnc(-c4ccc(C[C@H](NC(=O)c5ccc(C(C)(C)C)s5)C(=O)N[C@H](C)C(=O)O)cc4)nc3)cc2)cc1` (some centres unmarked) [Compound 1296] stands 2.5 to 5 µM; under `C[C@@H](NC(=O)[C@H](Cc1ccc(-c2ncc(-c3ccc(-c4ccnn4C)cc3)cn2)cc1)NC(=O)c1ccc(C(C)(C)C)s1)C(=O)O` [Compound 1297], 2.5 to 5 µM.
Turning to `CCC(CC)Oc1ccc(-c2ccc(-c3cnc(-c4ccc(C[C@H](NC(=O)c5ccc(C(C)(C)C)s5)C(=O)N[C@H](C)C(=O)O)cc4)nc3)cc2)cc1` [Compound 1298], the EC50 was less than 0.8 µM.
Under `C[C@@H](NC(=O)[C@H](Cc1ccc(-c2ncc(-c3ccc4c(c3)Cc3ccccc3-4)cn2)cc1)NC(=O)c1ccc(C(C)(C)C)s1)C(=O)O` [Compound 1299] stands 0.8 to 2.5 µM; under `C[C@@H](NC(=O)[C@H](Cc1ccc(-c2ncc(-c3ccc(N4CCCC4)cc3)cn2)cc1)NC(=O)c1ccc(C(C)(C)C)s1)C(=O)O` [Compound 1300], 0.8 to 2.5 µM.
Under `C[C@@H](NC(=O)[C@H](Cc1ccc(-c2ncc(-c3ccc(SC4CC4)cc3)cn2)cc1)NC(=O)c1ccc(C(C)(C)C)s1)C(=O)O` [Compound 1301] stands 5 to 10 µM; under `Cc1ccc(-c2ccc(-c3cnc(-c4ccc(C[C@H](NC(=O)c5ccc(C(C)(C)C)s5)C(=O)N[C@H](C)C(=O)O)cc4)nc3)s2)cc1` [Compound 1302], 5 to 10 µM.
In the case of `C[C@@H](NC(=O)[C@H](Cc1ccc(-c2ncc(-c3ccc(-c4ccccc4)nc3)cn2)cc1)NC(=O)c1ccc(C(C)(C)C)s1)C(=O)O` [Compound 1303], the concentration for a half-maximal effect (EC50) is 5 to 10 µM.
Under `C[C@@H](NC(=O)[C@H](Cc1ccc(-c2ncc(-c3ccc4c(c3)C(C)(C)c3ccccc3-4)cn2)cc1)NC(=O)c1ccc(C(C)(C)C)s1)C(=O)O` [Compound 1304] stands 0.8 to 2.5 µM; under `C[C@@H](NC(=O)[C@H](Cc1ccc(-c2ncc(-c3ccc(-c4ccc(F)cc4)cc3)cn2)cc1)NC(=O)c1ccc(C(C)(C)C)s1)C(=O)O` [Compound 1305], less than 0.8 µM; under `C[C@@H](NC(=O)[C@H](Cc1ccc(-c2ncc(-c3ccc(C4CC4)cc3)cn2)cc1)NC(=O)c1ccc(C(C)(C)C)s1)C(=O)O` [Compound 1306], 0.8 to 2.5 µM.
Turning to `C[C@@H](NC(=O)[C@H](Cc1ccc(-c2ncc(-c3ccc(N4CCOCC4)cc3)cn2)cc1)NC(=O)c1ccc(C(C)(C)C)s1)C(=O)O` [Compound 1307], the EC50 was in the range of 0.8 to 2.5 µM.
Consider `CCCCCc1ccc(-c2ccc(-c3cnc(-c4ccc(C[C@H](NC(=O)c5ccc(C(C)(C)C)s5)C(=O)N[C@H](C)C(=O)O)cc4)nc3)cc2)cc1` [Compound 1308], for which the EC50 lay within 0.8 to 2.5 µM.
Under `CCCCCOc1ccc(-c2ccc(-c3cnc(-c4ccc(C[C@H](NC(=O)c5ccc(C(C)(C)C)s5)C(=O)N[C@H](C)C(=O)O)cc4)nc3)cc2)cc1` [Compound 1309] stands 0.8 to 2.5 µM; under `CCCCC[C@H]1CC[C@H](c2ccc(-c3cnc(-c4ccc(C[C@H](NC(=O)c5ccc(C(C)(C)C)s5)C(=O)N[C@H](C)C(=O)O)cc4)nc3)cc2)CC1` [Compound 1310], 2.5 to 5 µM; under `C[C@@H](NC(=O)[C@H](Cc1ccc(-c2ncc(-c3cnc(-c4ccccc4)nc3)cn2)cc1)NC(=O)c1ccc(C(C)(C)C)s1)C(=O)O` [Compound 1311], 2.5 to 5 µM.
Under `C[C@@H](NC(=O)[C@H](Cc1ccc(-c2ncc(-c3ccc(-c4ccc(C(C)(C)C)cc4)cc3)cn2)cc1)NC(=O)c1ccc(C(C)(C)C)s1)C(=O)O` [Compound 1312] stands 0.8 to 2.5 µM; under `C[C@@H](NC(=O)[C@H](Cc1ccc(-c2ncc(-c3ccc(-c4ccc(C(F)(F)F)cc4)cc3)cn2)cc1)NC(=O)c1ccc(C(C)(C)C)s1)C(=O)O` [Compound 1313], less than 0.8 µM; under `C[C@@H](NC(=O)[C@H](Cc1ccc(-c2ncc(-c3ccc(-c4ccc(OC(F)(F)F)cc4)cc3)cn2)cc1)NC(=O)c1ccc(C(C)(C)C)s1)C(=O)O` [Compound 1314], less than 0.8 µM.
Under `C[C@@H](NC(=O)[C@H](Cc1ccc(-c2ncc(-c3ccc(-c4ccc(Cl)cc4)cc3)cn2)cc1)NC(=O)c1ccc(C(C)(C)C)s1)C(=O)O` [Compound 1315] stands less than 0.8 µM; under `C[C@@H](NC(=O)[C@H](Cc1ccc(-c2ncc(-c3ccc(C4CCC(C)(C)CC4)cc3)cn2)cc1)NC(=O)c1ccc(C(C)(C)C)s1)C(=O)O` [Compound 1316], less than 0.8 µM; under `CCCC[C@H]1CC[C@H](c2ccc(-c3cnc(-c4ccc(C[C@H](NC(=O)c5ccc(C(C)(C)C)s5)C(=O)N[C@H](C)C(=O)O)cc4)nc3)cc2)CC1` [Compound 1317], less than 0.8 µM.
Consider `C[C@@H](NC(=O)[C@H](Cc1ccc(-c2ncc(-c3ccc(-c4ccccc4)cc3F)cn2)cc1)NC(=O)c1ccc(C(C)(C)C)s1)C(=O)O` [Compound 1318], for which the EC50 was less than 0.8 µM.
As to `C[C@@H](NC(=O)[C@H](Cc1ccc(-c2ncc(-c3ccc(-c4cccc(C(F)(F)F)c4)cc3)cn2)cc1)NC(=O)c1ccc(C(C)(C)C)s1)C(=O)O` [Compound 1319], the concentration giving a half-maximal response (EC50) fell in the range of 5 to 10 µM.
Under `CCCc1ccc(-c2ccc(-c3cnc(-c4ccc(C[C@H](NC(=O)c5ccc(C(C)(C)C)s5)C(=O)N[C@H](C)C(=O)O)cc4)nc3)c(F)c2)cc1` [Compound 1320] stands less than 0.8 µM.
Under `CC[C@H]1CC[C@H](c2ccc(-c3cnc(-c4ccc(C[C@H](NC(=O)c5ccc(C(C)(C)C)s5)C(=O)N5C6CCC5C(C(=O)O)C6)cc4)nc3)cc2)CC1` (some centres unmarked) [Compound 1321] stands 0.8 to 2.5 µM.
